Test results published in patent publication US4138491A, “Method for treating diabetes” (Daiichi Seiyaku Co., Ltd., priority 1976, dated 1979).

Tests used:
blood sugar level [1] = assay: Glucose tolerance test in AYKK mice; assay type: in vivo, AYKK mouse; conditions: 25 mg/kg PO; glucose 1 g/kg; sum of increments at 15, 30, 60, 90 min vs control; 100 = no improvement
Method: (§1) One index for the treatment of diabetes is to improve this glucose tolerance. The compound of the present invention was orally administered to normal rats, Streptozotocin-induced mildly diabetic rats and AYKK-mice, and thereafter glucose was administered intraperitoneally 1 hour later, and the glucose tolerance was examined. […] Further, a lowering of blood sugar in the glucose tolerance test using normal rats was examined with the passage of time, and the results obtained are given in Table 1 below.
(§2) A sample aqueous solution or suspension was orally administered to the test animals which had been fasted for 24 hours and one hour later glucose was intraperitoneally or subcutaneously administered to the test animals. Thereafter, blood was sampled from the tail vein with the passage of time in order to determine the blood sugar level by the glucose-oxidase method.
*5AYKK-mouse was obtained by mating a yellow mouse having symptoms of […]

blood sugar level [2] = assay: Blood sugar lowering activity, fed AγKK (AYKK) mouse, hereditary diabetic; assay type: in vivo; conditions: fed AγKK mouse
Method: (§3) The compounds of the present invention were orally administered to normal rats, mice, dogs and hereditary diabetic mice(AYKK-mice), and the blood sugar lowering activity was examined.
(§4) Test animals which were used included animals which had been fasted for 24 hours to achieve an empty stomach, and animals which had been fed to achieve a full stomach without any restriction of diet. A sample aqueous solution or suspension was orally administered, and blood was sampled with the passage of time from the tail vein or the cephalic vein in order to determine the level of blood sugar by the glucose-oxidase method.

blood insulin [3] = assay: Insulin releasing action, fed mice; assay type: in vivo, mouse; conditions: fed mice, 25 mg/kg po
Method: (§5) Among the test animals fed rats were anesthetized by administration of pentobarbital (40 mg/kg, ip), and administered, intravenously with an isotonic sodium chloride solution of Compound A. An aqueous solution of the sample was orally administered to fed mice. In both cases blood was sampled from the tail vein with the passage of time, and the blood insulin was determined by the radioimmunoassay method of Morgen et al [Diabetes, Vol. 12, pp 115 (1963)]. At the same time blood sugar was also determined. […] The amount of insulin released in Table 4 was obtained by determining the difference between the blood insulin level at 5 points (5, 10, 20, 30, 40 minutes) during a 40 minute period after administration of the sample in the case of rats or 3 points (0.5, 1.0, 2.0 hours) during a 2 hour period after administration of the sample in the case of mice and the blood insulin level at 0 minute just before administration of the sample and then by summing up these differences.

blood sugar level [4] = assay: Glucose tolerance test in streptozotocin-induced mildly diabetic rats; assay type: in vivo, rat (Wistar strain); conditions: 10 mg/kg PO; glucose 1 g/kg; sum of increments at 15, 30, 60, 90 min vs control; 100 = no improvement
Method: as §1, §2
*4The streptozotocin-induced mildly diabetic rats were produced by […]

blood sugar level [5] = assay: Blood sugar lowering activity, fasted beagle; assay type: in vivo, beagle dog; conditions: 25 mg/kg PO
Method: as §3, §4

blood insulin [6] = assay: Insulin releasing action, fed rats; assay type: in vivo, rat; conditions: 25 mg/kg iv
Method: as §5

serum lactate level = assay: Influence on serum lactate level, repeated administration for 4 days; assay type: in vivo, normal rat; conditions: Compound A 200 mg/kg/day (phenformin dose not given)
Method: The biguanide drugs heretofore used as a treatment for diabetes are said undesirably to cause acidosis due to an increase of serum lactate level when such drugs are repeatedly administered. The compounds of the present invention were repeatedly administered for 4 days to normal rats and the serum lactate level was determined every day to compare such with the administration of phenformine which is one example of a biguanide drug.
Compound A was repeatedly administered for 4 days to normal rats in a dosage of 200 mg/kg/day, and blood was sampled with the passage of time in order to determine the serum lactate level.

blood sugar level [7] = assay: Blood sugar lowering activity, fed mouse; assay type: in vivo; conditions: 25 mg/kg PO
Method: as §3, §4

blood sugar level [8] = assay: Glucose tolerance test in normal rats (oral compound, glucose load 1 hour later); assay type: in vivo, normal rat
Method: as §1, §2

blood sugar level [9] = assay: Blood sugar lowering activity, fasted rat; assay type: in vivo
Method: as §3, §4

Acute toxicity (rat) = conditions: in vivo, read-out: Acute Toxicity (rat) ID50
[10] = test system: blood platelet aggregation induced by collagen in rat platelet rich plasma; assay: Blood platelet aggregation inhibiting activity (collagen induced, in vitro); assay type: cell-based; conditions: read-out: Platelet Aggregation Inhibition Activity, ID50
Method: It is generally said that blood platelet aggregability is accelerated in a diabetes patient and that this secondarily causes blood vessel disorders. […] Thus, based on this the compounds of the present invention are expected to be useful in preventing and improving the secondary vasular lesions of diabetes mellitus.
Citrated rat blood was centrifuged in order to obtain platelet rich plasma, and to 0.4 ml of this plasma was added 50 μl of sample solution. To the resulting solution was added 50 μl of collagen suspension under stirring, and platelet aggregation reaction was determined according to the method of Born [Nature, Vol. 194, pp. 927 (1962)]. The concentration of the sample (ID50) which inhibits 50% of the aggregation reaction of the control without the test sample added is shown in Table 6 below.

c1ccc(C(CC2=NCCN2)c2ccccc2)cc1 [Compound A, 2-(2,2-diphenyl)ethylimidazoline]
Glucose Tolerance Improving Activity (blood sugar level [1]): 52.5% | Blood Sugar Level (control = 100), 1 Hr (blood sugar level [2]; 10 mg/kg PO): 72% | Blood Sugar Level (control = 100), 2 Hrs (blood sugar level [2]; 10 mg/kg PO): 71% | Blood Sugar Level (control = 100), 3 Hrs (blood sugar level [2]; 10 mg/kg PO): 62% | Blood Sugar Level (control = 100), 5 Hrs (blood sugar level [2]; 10 mg/kg PO): 63% | Blood Sugar Level (control = 100), 1 Hr (blood sugar level [2]; 25 mg/kg PO): 44% | Blood Sugar Level (control = 100), 2 Hrs (blood sugar level [2]; 25 mg/kg PO): 46% | Blood Sugar Level (control = 100), 3 Hrs (blood sugar level [2]; 25 mg/kg PO): 41% | Blood Sugar Level (control = 100), 5 Hrs (blood sugar level [2]; 25 mg/kg PO): 49% | Blood Sugar Level (blood insulin [3]; after 2 hours, control = 100): 69.8% | Amount of Insulin Released (blood insulin [3]; sum of differences at 0.5, 1.0, 2.0 hours): 57±14.2 μunit/ml | Glucose Tolerance Improving Activity (blood sugar level [4]): 25.2% | Blood Sugar Level (control = 100), 1 Hr (blood sugar level [5]; 1 h): 70% | Blood Sugar Level (control = 100), 2 Hrs (blood sugar level [5]; 2 h): 66% | Blood Sugar Level (control = 100), 3 Hrs (blood sugar level [5]; 3 h): 64% | Blood Sugar Level (blood insulin [6]; after 90 minutes, control = 100): 62% | Amount of Insulin Released (blood insulin [6]; sum of differences at 5, 10, 20, 30, 40 min): 250±15 μunit/ml | Serum Lactate Level, 0 Day (serum lactate level; 0 Day): 0.993±0.051 μ mol/ml | Serum Lactate Level, After 1 Day (serum lactate level; After 1 Day): 1.386±0.073 μ mol/ml | Serum Lactate Level, After 4 Days (serum lactate level; After 4 Days): 1.125±0.113 μ mol/ml | Blood Sugar Level (control = 100), 1 Hr (blood sugar level [7]; 1 h): 54% | Blood Sugar Level (control = 100), 2 Hrs (blood sugar level [7]; 2 h): 67% | Blood Sugar Level (control = 100), 3 Hrs (blood sugar level [7]; 3 h): 65% | Blood Sugar Level (control = 100), 5 Hrs (blood sugar level [7]; 5 h): 76% | Glucose Tolerance Improving Activity (blood sugar level [8]; 10 mg/kg PO, glucose 2 g/kg, sum of increments at 15, 30, 60, 90 min vs control, 100 = no improvement): 15.7% | Blood Glucose Level, 0 min (blood sugar level [8]; 10 mg/kg, glucose 2 g/kg, 0 min): 72 ± 3 mg/dL | Blood Glucose Level, 15 min (blood sugar level [8]; 10 mg/kg, glucose 2 g/kg, 15 min): 83 ± 6 mg/dL | Blood Glucose Level, 30 min (blood sugar level [8]; 10 mg/kg, glucose 2 g/kg, 30 min): 87 ± 4 mg/dL | Blood Glucose Level, 60 min (blood sugar level [8]; 10 mg/kg, glucose 2 g/kg, 60 min): 76 ± 3 mg/dL | Blood Glucose Level, 90 min (blood sugar level [8]; 10 mg/kg, glucose 2 g/kg, 90 min): 68 ± 4 mg/dL | Blood Glucose Level, before glucose load (-60 min.) (blood sugar level [8]; 10 mg/kg, glucose 2 g/kg, -60 min): 84 ± 1 mg/dL | blood sugar level maintained after glucose load (blood sugar level [8]; normal rats, Table 1, in words): maintains the blood sugar level in the range of the fasting blood sugar level | rise in blood sugar level due to the glucose load (blood sugar level [8]; normal rats, Table 1, in words): scarcely any rise in blood sugar level | Blood Sugar Level (control = 100), 1 Hr (blood sugar level [9]; 10 mg/kg PO): 76% | Blood Sugar Level (control = 100), 2 Hrs (blood sugar level [9]; 10 mg/kg PO): 71% | Blood Sugar Level (control = 100), 3 Hrs (blood sugar level [9]; 10 mg/kg PO): 71% | Blood Sugar Level (control = 100), 5 Hrs (blood sugar level [9]; 10 mg/kg PO): 65% | Blood Sugar Level (control = 100), 1 Hr (blood sugar level [9]; 25 mg/kg PO): 72% | Blood Sugar Level (control = 100), 2 Hrs (blood sugar level [9]; 25 mg/kg PO): 67% | Blood Sugar Level (control = 100), 3 Hrs (blood sugar level [9]; 25 mg/kg PO): 57% | Blood Sugar Level (control = 100), 5 Hrs (blood sugar level [9]; 25 mg/kg PO): 67% | LD50 (Acute toxicity (rat)): 562 mg/kg | IC50 [10]: 70 µM
